The results in this text go back to PubChem BioAssay (NCI).

Some test systems named below: SK-OV-3 ovarian; SK-MEL-28 melanoma; CAKI-1 renal; HCT-15 colon; DU-145 prostate; RPMI-8226 leukemia; U251 CNS; SF-268 CNS.
Common to all, as to assay: growth of human tumour cells (NCI), 48 h

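Test compounds were applied to cells in 96-well plates for 48 hours at 5 doses. Here, GI50 denotes the concentration required for 50% inhibition of growth. TGI: concentration producing complete growth inhibition.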

Regarding `CCS(=O)(=O)N1CCN(c2ccc(Nc3ncc(C(N)=O)c(NC4CC4)n3)cc2)CC1`, the GI50 is 7.93 µM in the test on SK-OV-3 ovarian; 13.6 µM in the test on SK-MEL-28 melanoma; 5.46 µM in the test with CAKI-1 renal; 2.64 µM in the test with HCT-15 colon; 8.63 µM in the test on DU-145 prostate; 2.16 µM in the test on RPMI-8226 leukemia. Moreover, the GI50 in the test on U251 CNS was 54.1 µM; in the test with SF-268 CNS, 13.9 µM. Further, the TGI was 26.3 µM in the test on SK-OV-3 ovarian; 35.6 µM in the test on SK-MEL-28 melanoma; 28.5 µM in the test with CAKI-1 renal; 27.1 µM with HCT-15 colon; more than 100 µM in the test on DU-145 prostate; 9.82 µM with RPMI-8226 leukemia. For the same molecule, the TGI in the test on U251 CNS was more than 100 µM; in the test with SF-268 CNS, 52.9 µM.

For the molecule `OCC1OC(n2cnc3c(NCc4ccccc4O)ncnc32)C(O)C1O` (stereo not drawn), the GI50 in the test on SK-OV-3 ovarian is 0.627 µM; with SK-MEL-28 melanoma it was 4.15 µM; in the test with CAKI-1 renal it was 0.349 µM; in the test with HCT-15 colon, 0.432 µM; in the test with DU-145 prostate, 0.224 µM; in the test on RPMI-8226 leukemia, 5.11 µM. Also, the GI50 in the test with U251 CNS was 1.16 µM; in the test with SF-268 CNS, 0.616 µM. The TGI in the test on SK-OV-3 ovarian is 26.1 µM; in the test on SK-MEL-28 melanoma it was more than 100 µM; with CAKI-1 renal, 9.43 µM; in the test with DU-145 prostate, more than 32 µM; with RPMI-8226 leukemia, more than 63.6 µM; in the test on U251 CNS, more than 100 µM. The molecule further showed a TGI in the test on SF-268 CNS of more than 100 µM.

Regarding `O=C(COc1cccc(/C=C2\Oc3ccc4ccccc4c3C2=O)c1)c1ccc([N+](=O)[O-])cc1`, the GI50 in the test on SK-OV-3 ovarian is 64.2 µM; in the test on SK-MEL-28 melanoma, 48.4 µM; with CAKI-1 renal, 45.9 µM; in the test with HCT-15 colon, 12.3 µM; in the test with DU-145 prostate, 12.1 µM; in the test on RPMI-8226 leukemia it was 1.12 µM. For the same molecule, the GI50 with U251 CNS is 14.7 µM; with SF-268 CNS, 13.3 µM. Also, the TGI in the test on SK-OV-3 ovarian is more than 100 µM; with SK-MEL-28 melanoma, more than 100 µM; with CAKI-1 renal it was more than 100 µM; in the test with HCT-15 colon it was 30.9 µM; in the test with DU-145 prostate it was 29.3 µM; with RPMI-8226 leukemia, 13.3 µM. The TGI in the test on U251 CNS was found to be 27.8 µM; in the test on SF-268 CNS, 27.2 µM.

As to `C/C=C(\C)C(=O)O[C@@H]1C=CC(=O)O[C@H]1CNC(=O)[C@H](C)O`, the GI50 with SK-OV-3 ovarian is 39.4 µM; with SK-MEL-28 melanoma, 16.1 µM; with CAKI-1 renal it was 17.8 µM; in the test on HCT-15 colon it was 18.5 µM; in the test on DU-145 prostate, 22.6 µM; in the test on RPMI-8226 leukemia it was 9.12 µM. The GI50 in the test with U251 CNS was 20.5 µM; in the test on SF-268 CNS, 17 µM. The TGI amounted to 98.9 µM in the test with SK-OV-3 ovarian; 35.8 µM in the test on SK-MEL-28 melanoma; 36.5 µM with CAKI-1 renal; 45.4 µM with HCT-15 colon; 69.1 µM in the test with DU-145 prostate; 33.3 µM in the test with RPMI-8226 leukemia. Moreover, the results for the TGI in the test with U251 CNS and in the test with SF-268 CNS were 54.7 µM and 51.3 µM, respectively.

With `NS(=O)(=O)c1cc(C(=O)O)c(Cl)c([N+](=O)[O-])c1Cl`, the TGI in the test on SK-OV-3 ovarian, in the test on SK-MEL-28 melanoma, in the test on CAKI-1 renal, in the test with HCT-15 colon, in the test with DU-145 prostate and in the test on RPMI-8226 leukemia was more than 100 µM in each case. Besides, the TGI with U251 CNS and in the test with SF-268 CNS was more than 100 µM each time.

Turning to `Cc1ccc(C2C3Cc4ccccc4C3=NN2c2ccc(S(=O)(=O)NC(=O)Nc3ccccc3)cc2)cc1` (stereo not drawn), the GI50 in the test with SK-OV-3 ovarian was 16.1 µM; in the test with SK-MEL-28 melanoma it was 22.6 µM; in the test with CAKI-1 renal it was 14.6 µM; in the test on HCT-15 colon, 14.8 µM; with DU-145 prostate, 14.2 µM; in the test on RPMI-8226 leukemia, 15 µM. For the same molecule, the GI50 is 14.3 µM in the test with U251 CNS and 17.5 µM in the test with SF-268 CNS. Moreover, the TGI in the test with SK-OV-3 ovarian worked out at 31.9 µM; with SK-MEL-28 melanoma it was 52.5 µM; in the test with CAKI-1 renal, 37.9 µM; in the test with HCT-15 colon, 32.2 µM; in the test with DU-145 prostate it was 27.2 µM; in the test with RPMI-8226 leukemia, 47.2 µM. The TGI in the test with U251 CNS worked out at 27.3 µM; in the test with SF-268 CNS, 55 µM.

As to `CC(=O)/C=C/c1ccc(N(CCO)Cc2ccc(C(C)(C)C)cc2)cc1`, the GI50 in the test with SK-OV-3 ovarian is 121 µM; with SK-MEL-28 melanoma, 58.8 µM; in the test on HCT-15 colon it was 27.8 µM; in the test on DU-145 prostate, 73.2 µM; in the test on RPMI-8226 leukemia it was 28.2 µM; in the test on U251 CNS, 66.1 µM. Besides, in the test on SF-268 CNS, the GI50 was 59 µM. In addition, the TGI with SK-OV-3 ovarian is 248 µM; in the test on SK-MEL-28 melanoma, 201 µM; in the test with HCT-15 colon it was 124 µM; with DU-145 prostate, 206 µM; with RPMI-8226 leukemia, 72.5 µM; in the test on U251 CNS, 194 µM. Besides, in the test on SF-268 CNS, the TGI was determined as 200 µM.

As for `O=C(Nc1cc2cc([N+](=O)[O-])ccc2oc1=O)c1cccs1`, the TGI in the test with SK-MEL-28 melanoma, with CAKI-1 renal, in the test on DU-145 prostate, in the test on RPMI-8226 leukemia, in the test on U251 CNS and in the test with SF-268 CNS was more than 100 µM in each case.

As to `NCCCNc1nc2ccccc2c2c(=O)c3cc(F)cc(Cl)c3sc12`, the GI50 in the test on SK-MEL-28 melanoma is 1.94 µM; in the test with CAKI-1 renal, 1.58 µM; with HCT-15 colon, 1.57 µM; with DU-145 prostate, 1.72 µM; in the test on RPMI-8226 leukemia, 2.13 µM; in the test on U251 CNS, 1.72 µM. The GI50 with SF-268 CNS is 1.61 µM. Also, the TGI with SK-MEL-28 melanoma came to 3.49 µM; in the test with CAKI-1 renal, 2.95 µM; in the test on HCT-15 colon it was 3.01 µM; in the test with DU-145 prostate, 3.17 µM; in the test with RPMI-8226 leukemia, 5.03 µM; in the test on U251 CNS it was 3.37 µM. Further, the TGI with SF-268 CNS was 3.29 µM.

Regarding `O=C(O)c1[nH]c2c([N+](=O)[O-])cc([N+](=O)[O-])cc2c1C(=O)O`, the TGI with SK-OV-3 ovarian, in the test on SK-MEL-28 melanoma, in the test on CAKI-1 renal, in the test on HCT-15 colon, in the test with DU-145 prostate and with U251 CNS was more than 100 µM throughout. Further, the TGI in the test on SF-268 CNS was more than 100 µM.
